The values below are quoted from earlier work in US9044480B1, “Compositions and methods for treating HCV” (priority 2011, dated 2015).

Data set [1] relates to HCV R155K mutation. To be noted: clinical trials and replicon cell assays (Bartels et al.; Lu et al.; Zhou et al.); cited from earlier work. A general note: A replicon is a self-replicating genome or part of one, used to study replication in cells.
Data set [2] deals with HCV. The conditions noted are these: R155K (danoprevir) or R155K/D168V (vaniprevir) mutants detected; cited from earlier work.

Regarding `COc1ccc2c(O[C@@H]3C[C@H]4C(=O)N[C@]5(C(=O)O)C[C@H]5/C=C\CCCCC[C@H](NC(=O)OC5CCCC5)C(=O)N4C3)cc(-c3csc(NC(C)C)n3)nc2c1` [BILN 2061], in data set [1], the “Resistance conferred by the R155K mutation” value is given as “high-level resistant”.

Regarding `CC(C)(C)OC(=O)N[C@H]1CCCCC/C=C\[C@@H]2C[C@@]2(C(=O)NS(=O)(=O)C2CC2)NC(=O)[C@@H]2C[C@@H](OC(=O)N3Cc4cccc(F)c4C3)CN2C1=O` [danoprevir], the “Viral load rebound in patients receiving treatment” value in data set [2] is recorded as “Viral load rebound”. For the same molecule, in data set [1], the “Resistance conferred by the R155K mutation” value is listed as “high-level resistant”. For the molecule `CC[C@@H]1C[C@]1(NC(=O)[C@@H]1C[C@@H]2CN1C(=O)[C@H](C(C)(C)C)NC(=O)OCC(C)(C)CCCCc1cccc3c1CN(C3)C(=O)O2)C(=O)NS(=O)(=O)C1CC1` [vaniprevir], the “Viral load rebound in patients receiving treatment” value in data set [2] was “viral load rebound”.
